SMILES strings stand for the structures.

The target of one test is T1, Akt2 (Homo sapiens, UniProt P31751).
T1 construct: host or cells: primary human hepatocytes
As to the kind of experiment: Akt2 activity in human hepatocytes. It is filed as cell-based. Here is the method:
After thawing, the hepatocytes were distributed (approximately 10^6 cells per 100 mm plate) and incubated approximately 16 hours overnight in Dulbecco's minimal essential medium containing 5% fetal calf serum, 100 units/ml sodium-penicillin, 100 μg/ml streptomycin-sulfate, 1 μM insulin and 2 μM dexamethasone. After washing, cells were incubated first for 2 hours in William's E medium (Sigma-Aldrich, St. Louis, Mo., catalog no. W1878) containing GLUTAMAX™ (Gibco/Invitrogen, Carlsbad, Calif.), 100 units/ml sodium-penicillin, 100 μg/ml streptomycin-sulfate, 10 μM insulin, 100 nM dexamethasone, and then for 2 hours in William's E medium containing 100 units/ml sodium penicillin, 100 μg/ml streptomycin-sulfate, 100 nM dexamethasone, 0.25 mg/ml transferrin, 0.25 μg/ml sodium selenite and 10 μM insulin. Cells were then washed and incubated for 3 hours in the same medium, but lacking insulin. […]
Akt2 Assay: Akt2 enzyme activity was measured with a kit obtained from Upstate Cell Signaling, as described (Standaert et al., J. Biol. Chem. 279:24929-24934, 2004; Sajan et al., J. Lipid Res. 50:1133-1145, 2009; Sajan et al., Diabetologia 52:1197-1207, 2009; Farese et al., J. Clin. Invest. 117:2289-2301, 2007). […] Akt1/2 activation was also assessed by immunoblotting for phosphorylation of serine-473.

A further test relates to FoxO1. The experiment in a line: ser-256 phosphorylation of hepatic FoxO1 in wild type mice after a single ICAPP injection. It is filed as in vivo, mouse. The following applies: 1.5 mg/kg ICAPP s.c., basally and in response to insulin. Here is the method: Western Analyses: Western analyses were conducted as described (Standaert et al., J. Biol. Chem. 279:24929-24934, 2004; Sajan et al., J. Lipid Res. 50:1133-1145, 2009; Sajan et al., Diabetologia 52:1197-1207, 2009; Farese et al., J. Clin. Invest. 117:2289-2301, 2007), using the following antibodies/antisera for immunodetection after resolution of lysate proteins by SDS-PAGE: rabbit polyclonal anti-IRS-1 antiserum (Upstate Cell Signaling); rabbit polyclonal anti-IRS-2 antiserum (Santa Cruz Technologies); rabbit polyclonal anti-PKC-ζ/λ antiserum (Santa Cruz Biotechnologies); rabbit polyclonal anti-PKC-ζ antiserum (gift of Dr. Todd Sacktor); mouse monoclonal anti-PKC-ι/ζ antibodies (Transduction Laboratories/BD, East Rutherford, N.J.); rabbit polyclonal anti-Akt1/2 antiserum (Upstate Cell Signaling); rabbit polyclonal anti-phospho-serine -473-Akt1/2 antiserum (New England BioLabs, Beverly, Mass.): rabbit polyclonal anti-phospho-threonine-410-[…]/-403-PKC-ι/λ antiserum (Upstate Cell Signaling); rabbit polyclonal anti-phospho-threonine-560-PKC-ζ/-555-PKC-ι/λ antiserum (Invitrogen); and anti-p65/RelA subunit of NFκB (Santa Cruz Biotechnologies). […]
Wild type mice were treated with 1.5 mg/kg ICAPP subcutaneously and after 2-30 hours, the mice were treated with 1 U/kg insulin 15 minutes before euthanasia. aPKC activity was determined as described in Example 1.

T1 sequence (P31751 whole entry): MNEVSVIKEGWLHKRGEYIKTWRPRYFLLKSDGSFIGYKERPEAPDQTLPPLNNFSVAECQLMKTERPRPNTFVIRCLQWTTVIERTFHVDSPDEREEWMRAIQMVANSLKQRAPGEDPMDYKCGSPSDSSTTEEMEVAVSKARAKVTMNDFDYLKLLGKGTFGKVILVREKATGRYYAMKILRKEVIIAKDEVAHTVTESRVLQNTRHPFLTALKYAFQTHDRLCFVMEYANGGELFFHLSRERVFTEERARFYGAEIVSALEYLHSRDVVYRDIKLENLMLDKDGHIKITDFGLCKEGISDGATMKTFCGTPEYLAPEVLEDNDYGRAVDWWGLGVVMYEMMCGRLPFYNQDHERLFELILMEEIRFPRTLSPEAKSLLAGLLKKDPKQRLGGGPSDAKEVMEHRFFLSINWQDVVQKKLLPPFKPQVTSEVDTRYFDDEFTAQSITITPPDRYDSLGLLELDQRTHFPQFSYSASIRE

Regarding `NC(=O)c1ncn([C@@H]2C[C@H](COP(=O)(O)O)[C@@H](O)[C@H]2O)c1N` [ICAPP, 1H-imidazole-4-carboxamide, 5-amino-1-[2,3-dihydroxy-4-[(phosphonooxy)methyl]cyclopentyl]-[1R-(1α,2β,3β,4α)]], the “insulin-induced increases in Akt activity” value at Akt2 is reported as “neither ICAPP nor ATM inhibited”. Besides, in the test with FoxO1, the “ser-256 phosphorylation of hepatic FoxO1” value is reported as “increased”.
As to `O=C([O-])CC([S][Au])C(=O)[O-]` (stereo not drawn) [ATM, aurothiomalate, reference compound], on Akt2, the “insulin-induced increases in Akt activity” value is reported as “neither ICAPP nor ATM inhibited”.
